Assay results as given in the supplement of paper PMC10307832.

Columns and labels:
Test in all cases: relative viability (nuclei count vs DMSO), 5 days (fraction); higher = more cells survive
Erlotinib + Vorinostat = compound: C#Cc1cccc(Nc2ncnc3cc(OCCOC)c(OCCOC)cc23)c1 [Erlotinib] + O=C(CCCCCCC(=O)Nc1ccccc1)NO [Vorinostat] (partner 1 µM)
Method in brief: (§1)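 Medians of duplicate plates are given as relative viability. That measure is the nuclei count in treated wells divided by the count in vehicle wells. Counts were taken on 4× images of lung cancer cell lines in 1536-well plates, 5 days after pin-tool dosing the day after seeding with one drug alone or a fixed anchor-drug dose plus five library-drug doses (not always all listed) in √10 steps.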

Erlotinib + Olaparib = compound: C#Cc1cccc(Nc2ncnc3cc(OCCOC)c(OCCOC)cc23)c1 [Erlotinib] + O=C(c1cc(Cc2n[nH]c(=O)c3ccccc23)ccc1F)N1CCN(C(=O)C2CC2)CC1 [Olaparib] (partner 8 µM)
Method in brief: as §1

AT9283 + OSI-027 = compound: O=C(Nc1c[nH]nc1-c1nc2ccc(CN3CCOCC3)cc2[nH]1)NC1CC1 [AT9283] + COc1cccc2cc(-c3nc([C@H]4CC[C@H](C(=O)O)CC4)n4ncnc(N)c34)[nH]c12 [OSI-027] (partner 0.5 µM)
Method in brief: as §1

AT9283 + Decitabine = compound: O=C(Nc1c[nH]nc1-c1nc2ccc(CN3CCOCC3)cc2[nH]1)NC1CC1 [AT9283] + Nc1ncn([C@H]2C[C@H](O)[C@@H](CO)O2)c(=O)n1 [Decitabine] (partner 2 µM)
Method in brief: as §1

Erlotinib + Bortezomib = compound: C#Cc1cccc(Nc2ncnc3cc(OCCOC)c(OCCOC)cc23)c1 [Erlotinib] + CC(C)C[C@H](NC(=O)[C@H](Cc1ccccc1)NC(=O)c1cnccn1)B(O)O [Bortezomib] (partner 0.002 µM)
Method in brief: as §1

Row | Cell Line | relative viability (Erlotinib + Vorinostat; first compound 0.02 µM) | relative viability (Erlotinib + Vorinostat; first compound 0.2 µM) | relative viability (Erlotinib + Vorinostat; first compound 0.6325 µM) | relative viability (Erlotinib + Vorinostat; first compound 2 µM) | relative viability (Erlotinib + Olaparib; first compound 0.02 µM) | relative viability (Erlotinib + Olaparib; first compound 0.2 µM) | relative viability (Erlotinib + Olaparib; first compound 0.6325 µM) | relative viability (Erlotinib + Olaparib; first compound 2 µM) | relative viability (AT9283 + OSI-027; first compound 0.003 µM) | relative viability (AT9283 + OSI-027; first compound 0.03 µM) | relative viability (AT9283 + OSI-027; first compound 0.09487 µM) | relative viability (AT9283 + OSI-027; first compound 0.3 µM) | relative viability (AT9283 + Decitabine; first compound 0.003 µM) | relative viability (AT9283 + Decitabine; first compound 0.03 µM) | relative viability (AT9283 + Decitabine; first compound 0.09487 µM) | relative viability (AT9283 + Decitabine; first compound 0.3 µM) | relative viability (Erlotinib + Bortezomib; first compound 0.02 µM) | relative viability (Erlotinib + Bortezomib; first compound 0.2 µM) | relative viability (Erlotinib + Bortezomib; first compound 0.6325 µM) | relative viability (Erlotinib + Bortezomib; first compound 2 µM)
1 | LK-2 | 0.264 | 0.454 | 0.419 | 0.304 | 0.914 | 0.706 | 0.804 | 0.611 | 0.2 | 0.151 | 0.156 | 0.143 | 0.215 | 0.116 | 0.113 | 0.0972 | – | – | – | –
2 | NCI-H358 | 0.693 | 0.292 | 0.419 | 0.221 | 0.583 | 0.599 | 0.403 | 0.199 | 0.899 | 0.186 | 0.0868 | 0.0708 | 0.219 | 0.143 | 0.102 | 0.0856 | – | – | – | –
3 | NCI-H1703 | – | – | – | – | 0.48 | 0.512 | 0.43 | 0.389 | – | – | – | – | – | – | – | – | 0.296 | 0.346 | 0.409 | 0.238
4 | Calu-6 | – | – | – | – | 0.602 | 0.546 | 0.552 | 0.519 | – | – | – | – | – | – | – | – | 0.992 | 1.02 | 1.04 | 0.933
5 | NCI-H2170 | 0.787 | 0.855 | 0.832 | 0.501 | 0.651 | 0.602 | 0.476 | 0.309 | 0.663 | 0.607 | 0.298 | 0.172 | 0.466 | 0.366 | 0.228 | 0.156 | – | – | – | –
6 | NCI-H2228 | 0.649 | 0.591 | 0.458 | 0.476 | 0.678 | 0.701 | 0.537 | 0.604 | 0.585 | 0.648 | 0.355 | 0.126 | – | – | – | – | 1.06 | 1.03 | 1.02 | 0.8
7 | SW 900 | 0.683 | 0.439 | 0.523 | 0.448 | 0.907 | 0.846 | 0.84 | – | 0.718 | 0.703 | 0.388 | 0.229 | 0.422 | 0.442 | 0.349 | 0.232 | – | – | – | –
8 | EBC-1 | – | – | – | – | 0.724 | 0.75 | 0.675 | – | – | – | – | – | – | – | – | – | 0.609 | 0.588 | 0.477 | 0.587
9 | NCI-H2342 | 0.615 | 0.851 | 0.801 | 0.789 | 0.378 | 0.425 | 0.462 | 0.383 | 0.605 | 0.576 | 0.508 | 0.413 | 0.653 | 0.766 | 0.655 | 0.455 | – | – | – | –
10 | NCI-H1299 | – | – | – | – | 0.988 | 1.01 | 0.959 | 1 | – | – | – | – | – | – | – | – | 1.11 | 1.05 | 0.997 | 1
11 | NCI-H1793 | 0.841 | 0.36 | 0.551 | 0.441 | 0.819 | 0.391 | 0.686 | 0.436 | 0.278 | 0.367 | 0.188 | 0.206 | 0.498 | 0.469 | 0.283 | 0.266 | – | – | – | –
12 | NCI-H1944 | 0.497 | 0.388 | 0.48 | 0.35 | 0.396 | 0.311 | 0.382 | 0.304 | 0.391 | 0.291 | 0.201 | 0.229 | 0.415 | 0.388 | 0.212 | 0.267 | – | – | – | –
13 | CAL-12T | 0.763 | 0.54 | 0.359 | 0.313 | 0.742 | 0.674 | 0.488 | 0.474 | 0.718 | 0.599 | 0.216 | 0.17 | – | – | – | – | 0.879 | 0.73 | 0.713 | 0.487
14 | NCI-H1648 | 0.528 | 0.304 | 0.501 | 0.278 | 1.4 | 0.517 | 0.692 | 0.442 | 0.277 | 0.259 | 0.283 | 0.246 | 0.515 | 0.503 | 0.409 | 0.303 | – | – | – | –
15 | NCI-H522 | 0.949 | 0.832 | 0.869 | 0.762 | 0.614 | 0.553 | 0.61 | 0.422 | 0.665 | 0.57 | 0.549 | 0.567 | 0.67 | 0.607 | 0.569 | 0.479 | – | – | – | –
16 | NCI-H1563 | – | – | – | – | – | – | – | – | 0.769 | 0.748 | 0.645 | 0.525 | – | – | – | – | 0.905 | 0.787 | 0.75 | 0.754
17 | NCI-H1623 | – | – | – | – | – | – | – | – | 0.438 | 0.448 | 0.358 | 0.381 | – | – | – | – | – | – | – | –
18 | A549 | – | – | – | – | 0.345 | 0.303 | 0.332 | 0.269 | – | – | – | – | 0.136 | 0.114 | 0.0516 | 0.05 | – | – | – | –
19 | IA-LM | 0.905 | 0.72 | – | 0.744 | 0.757 | – | – | 0.905 | – | – | – | – | – | – | – | – | 0.833 | – | 0.977 | 0.86
20 | NCI-H1395 | 0.776 | 0.674 | 0.808 | 0.652 | 0.465 | 0.43 | 0.426 | 0.432 | 0.523 | 0.541 | 0.356 | 0.363 | 0.819 | 0.604 | 0.42 | 0.385 | – | – | – | –
21 | SK-MES-1 | 1.14 | 0.619 | 0.672 | 0.491 | 0.821 | 0.563 | 0.465 | 0.346 | 0.74 | 0.619 | 0.215 | 0.197 | 0.396 | 0.334 | 0.306 | 0.138 | – | – | – | –
22 | NCI-H1792 | – | – | – | – | 0.407 | 0.299 | 0.464 | 0.383 | 0.727 | 0.868 | 0.742 | 0.404 | 0.499 | 0.56 | 0.567 | 0.345 | 0.897 | 0.958 | 1.18 | 0.783
